Measurements taken from ChEMBL document CHEMBL3885861, “Open TG-GATES”.

Species on record: Rattus norvegicus
Assay: Open TG-GATES - Regimen: Daily Repeat
Type: toxicity, organism-based, Sprague-Dawley
Set-up: regimen Daily Repeat, gender Male, age 6 weeks
Details: in vivo, iv, route intravenous injection; for APTT / Bas / Eos / Fbg / Hb / Ht / Lym / MCH / MCHC / MCV / Mono / Neu / PT / Plat / RBC / Ret / WBC: tissue Blood; for KIDNEY_L / KIDNEY_R / KIDNEY_TOTAL: tissue Kidney; for LIVER: tissue Liver; for A/G / ALP / ALT / AST / BUN / CRE / Ca / Cl / DBIL / GLC / IP / K / LDH / Na / PL / RALB / TBIL / TC / TG / TP / gamma-GTP: tissue Plasma
[1] = 6 mg/kg, 72 h, dose level Middle, time 3 day
[2] = 6 mg/kg, […], dose level Middle, time 7 day
[3] = 6 mg/kg, […], dose level Middle, time 14 day
[4] = 6 mg/kg, […], dose level Middle, time 28 day
[5] = 20 mg/kg, 72 h, dose level High, time 3 day
[6] = 20 mg/kg, […], dose level High, time 7 day
[7] = 20 mg/kg, […], dose level High, time 14 day
[8] = 20 mg/kg, […], dose level High, time 28 day

NCCBr [BROMOETHANAMINE]
TERMINAL_BW [1]: 227.7 g
APTT [1]: 22.4 s
Bas [1]: 0%
Eos [1]: 1%
Fbg [1]: 318.4 mg/dL
Hb [1]: 13.8 g/dL
Ht [1]: 40%
Lym [1]: 83.6%
MCH [1]: 21.2 pg
MCHC [1]: 34.4%
MCV [1]: 61.7 fL
Mono [1]: 2%
Neu [1]: 12.2%
PT [1]: 16.2 s
Plat [1]: 121.7 x10_4/uL
RBC [1]: 648 x10_4/ul
Ret [1]: 4.6%
WBC [1]: 75.6 x10_2/uL
KIDNEY_L [1]: 1 g
KIDNEY_R [1]: 1 g
KIDNEY_TOTAL [1]: 2 g
LIVER [1]: 10.9 g
A/G [1]: 1.3
ALP [1]: 1767.4 IU/L
ALT [1]: 39.6 IU/L
AST [1]: 69 IU/L
BUN [1]: 15.6 mg/dL
CRE [1]: 0.2 mg/dL
Ca [1]: 10.9 mg/dL
Cl [1]: 106.6 meq/L
DBIL [1]: 0 mg/dL
GLC [1]: 169 mg/dL
IP [1]: 6.9 mg/dL
K [1]: 4.6 meq/L
LDH [1]: 209.6 IU/L
Na [1]: 142 meq/L
PL [1]: 138.8 mg/dL
RALB [1]: 3.1 g/dL
TBIL [1]: 0.006 mg/dL
TC [1]: 71 mg/dL
TG [1]: 113.8 mg/dL
TP [1]: 5.6 g/dL
gamma-GTP [1]: 1.4 IU/L
TERMINAL_BW [2]: 261 g
TERMINAL_BW [3]: 314.5 g
TERMINAL_BW [4]: 361.2 g
APTT [2]: 23.5 s
Bas [2]: 0%
Eos [2]: 1.4%
Fbg [2]: 282.6 mg/dL
Hb [2]: 13.9 g/dL
Ht [2]: 40.1%
Lym [2]: 83%
MCH [2]: 21.6 pg
MCHC [2]: 34.7%
MCV [2]: 62.2 fL
Mono [2]: 2.8%
Neu [2]: 11.8%
PT [2]: 15.8 s
Plat [2]: 123.4 x10_4/uL
RBC [2]: 645 x10_4/ul
Ret [2]: 3.9%
WBC [2]: 116 x10_2/uL
APTT [3]: 22.4 s
Bas [3]: 0%
Eos [3]: 1.2%
Fbg [3]: 327.4 mg/dL
Hb [3]: 13.8 g/dL
Ht [3]: 40.3%
Lym [3]: 85.2%
MCH [3]: 20.4 pg
MCHC [3]: 34.3%
MCV [3]: 59.5 fL
Mono [3]: 2%
Neu [3]: 10.6%
PT [3]: 15.5 s
Plat [3]: 132 x10_4/uL
RBC [3]: 676.6 x10_4/ul
Ret [3]: 3.8%
WBC [3]: 119.2 x10_2/uL
APTT [4]: 26 s
Bas [4]: 0%
Eos [4]: 1.4%
Fbg [4]: 312.2 mg/dL
Hb [4]: 15.8 g/dL
Ht [4]: 42.9%
Lym [4]: 84.2%
MCH [4]: 20.4 pg
MCHC [4]: 36.9%
MCV [4]: 55.4 fL
Mono [4]: 1.4%
Neu [4]: 12.2%
PT [4]: 16.4 s
Plat [4]: 110.1 x10_4/uL
RBC [4]: 775.2 x10_4/ul
Ret [4]: 2.2%
WBC [4]: 90.4 x10_2/uL
KIDNEY_L [2]: 1.1 g
KIDNEY_R [2]: 1.1 g
KIDNEY_TOTAL [2]: 2.1 g
KIDNEY_L [3]: 1.3 g
KIDNEY_R [3]: 1.2 g
KIDNEY_TOTAL [3]: 2.5 g
KIDNEY_L [4]: 1.3 g
KIDNEY_R [4]: 1.4 g
KIDNEY_TOTAL [4]: 2.7 g
LIVER [2]: 12.5 g
LIVER [3]: 14.7 g
LIVER [4]: 15.7 g
A/G [2]: 1.2
ALP [2]: 1617 IU/L
ALT [2]: 39.4 IU/L
AST [2]: 71.4 IU/L
BUN [2]: 17.6 mg/dL
CRE [2]: 0.2 mg/dL
Ca [2]: 10.8 mg/dL
Cl [2]: 107.4 meq/L
DBIL [2]: 0 mg/dL
GLC [2]: 182.2 mg/dL
IP [2]: 6.9 mg/dL
K [2]: 4.5 meq/L
LDH [2]: 204 IU/L
Na [2]: 141 meq/L
PL [2]: 140 mg/dL
RALB [2]: 3 g/dL
TBIL [2]: 0.002 mg/dL
TC [2]: 72.4 mg/dL
TG [2]: 119 mg/dL
TP [2]: 5.5 g/dL
gamma-GTP [2]: 1.2 IU/L
A/G [3]: 1.1
ALP [3]: 1499 IU/L
ALT [3]: 41 IU/L
AST [3]: 69 IU/L
BUN [3]: 18.2 mg/dL
CRE [3]: 0.2 mg/dL
Ca [3]: 10.8 mg/dL
Cl [3]: 107 meq/L
DBIL [3]: 0 mg/dL
GLC [3]: 170.2 mg/dL
IP [3]: 7.1 mg/dL
K [3]: 4.4 meq/L
LDH [3]: 142.6 IU/L
Na [3]: 143.2 meq/L
PL [3]: 145.8 mg/dL
RALB [3]: 3 g/dL
TBIL [3]: 0.004 mg/dL
TC [3]: 77.6 mg/dL
TG [3]: 98.2 mg/dL
TP [3]: 5.8 g/dL
gamma-GTP [3]: 2.8 IU/L
A/G [4]: 1.1
ALP [4]: 1273.6 IU/L
ALT [4]: 32.8 IU/L
AST [4]: 55 IU/L
BUN [4]: 18.2 mg/dL
CRE [4]: 0.2 mg/dL
Ca [4]: 10.5 mg/dL
Cl [4]: 106.4 meq/L
DBIL [4]: 0 mg/dL
GLC [4]: 185.8 mg/dL
IP [4]: 6.5 mg/dL
K [4]: 4.1 meq/L
LDH [4]: 118 IU/L
Na [4]: 145 meq/L
PL [4]: 131.8 mg/dL
RALB [4]: 3.2 g/dL
TBIL [4]: 0.004 mg/dL
TC [4]: 65.2 mg/dL
TG [4]: 112.2 mg/dL
TP [4]: 6.2 g/dL
gamma-GTP [4]: 2.6 IU/L
TERMINAL_BW [5]: 210.6 g
APTT [5]: 22.4 s
Bas [5]: 0%
Eos [5]: 1%
Fbg [5]: 351 mg/dL
Hb [5]: 13.7 g/dL
Ht [5]: 39.6%
Lym [5]: 83.4%
MCH [5]: 21.2 pg
MCHC [5]: 34.5%
MCV [5]: 61.3 fL
Mono [5]: 3%
Neu [5]: 11%
PT [5]: 16.3 s
Plat [5]: 130.9 x10_4/uL
RBC [5]: 646.2 x10_4/ul
Ret [5]: 2.4%
WBC [5]: 69.9 x10_2/uL
KIDNEY_L [5]: 1 g
KIDNEY_R [5]: 1 g
KIDNEY_TOTAL [5]: 2 g
LIVER [5]: 9.3 g
A/G [5]: 1.2
ALP [5]: 1285.8 IU/L
ALT [5]: 37 IU/L
AST [5]: 63.2 IU/L
BUN [5]: 16 mg/dL
CRE [5]: 0.2 mg/dL
Ca [5]: 10.6 mg/dL
Cl [5]: 109.2 meq/L
DBIL [5]: 0.004 mg/dL
GLC [5]: 160 mg/dL
IP [5]: 5.8 mg/dL
K [5]: 4.5 meq/L
LDH [5]: 206.4 IU/L
Na [5]: 141.6 meq/L
PL [5]: 140 mg/dL
RALB [5]: 3 g/dL
TBIL [5]: 0.014 mg/dL
TC [5]: 77.8 mg/dL
TG [5]: 53.4 mg/dL
TP [5]: 5.6 g/dL
gamma-GTP [5]: 1.4 IU/L
TERMINAL_BW [6]: 227.1 g
TERMINAL_BW [7]: 262.8 g
TERMINAL_BW [8]: 323 g
APTT [6]: 23 s
Bas [6]: 0%
Eos [6]: 0.8%
Fbg [6]: 332.6 mg/dL
Hb [6]: 14.1 g/dL
Ht [6]: 40.5%
Lym [6]: 86.8%
MCH [6]: 20.9 pg
MCHC [6]: 34.8%
MCV [6]: 59.9 fL
Mono [6]: 2.4%
Neu [6]: 8.6%
PT [6]: 15.9 s
Plat [6]: 140.5 x10_4/uL
RBC [6]: 676 x10_4/ul
Ret [6]: 1.6%
WBC [6]: 87 x10_2/uL
APTT [7]: 24.6 s
Bas [7]: 0%
Eos [7]: 0.2%
Fbg [7]: 332.6 mg/dL
Hb [7]: 14.1 g/dL
Ht [7]: 40.7%
Lym [7]: 87.4%
MCH [7]: 20.1 pg
MCHC [7]: 34.6%
MCV [7]: 58.1 fL
Mono [7]: 2%
Neu [7]: 9.2%
PT [7]: 15.6 s
Plat [7]: 134.2 x10_4/uL
RBC [7]: 700.8 x10_4/ul
Ret [7]: 2.7%
WBC [7]: 76.8 x10_2/uL
APTT [8]: 25.9 s
Bas [8]: 0%
Eos [8]: 1.4%
Fbg [8]: 333.4 mg/dL
Hb [8]: 14.8 g/dL
Ht [8]: 40.7%
Lym [8]: 79%
MCH [8]: 19.9 pg
MCHC [8]: 36.3%
MCV [8]: 54.8 fL
Mono [8]: 3%
Neu [8]: 15.6%
PT [8]: 16.1 s
Plat [8]: 120.7 x10_4/uL
RBC [8]: 744 x10_4/ul
Ret [8]: 3.3%
WBC [8]: 65.8 x10_2/uL
KIDNEY_L [6]: 1.1 g
KIDNEY_R [6]: 1.1 g
KIDNEY_TOTAL [6]: 2.2 g
KIDNEY_L [7]: 1.2 g
KIDNEY_R [7]: 1.2 g
KIDNEY_TOTAL [7]: 2.4 g
KIDNEY_L [8]: 1.4 g
KIDNEY_R [8]: 1.4 g
KIDNEY_TOTAL [8]: 2.8 g
LIVER [6]: 11.1 g
LIVER [7]: 13.6 g
LIVER [8]: 18.5 g
A/G [6]: 1.1
ALP [6]: 1454.4 IU/L
ALT [6]: 31.6 IU/L
AST [6]: 53.4 IU/L
BUN [6]: 15.6 mg/dL
CRE [6]: 0.2 mg/dL
Ca [6]: 10.7 mg/dL
Cl [6]: 109 meq/L
DBIL [6]: 0 mg/dL
GLC [6]: 174.2 mg/dL
IP [6]: 7 mg/dL
K [6]: 4.3 meq/L
LDH [6]: 176.6 IU/L
Na [6]: 141.2 meq/L
PL [6]: 147.4 mg/dL
RALB [6]: 3 g/dL
TBIL [6]: 0.006 mg/dL
TC [6]: 75.2 mg/dL
TG [6]: 98.6 mg/dL
TP [6]: 5.7 g/dL
gamma-GTP [6]: 1.6 IU/L
A/G [7]: 1.1
ALP [7]: 1344.2 IU/L
ALT [7]: 34.2 IU/L
AST [7]: 49.4 IU/L
BUN [7]: 19.2 mg/dL
CRE [7]: 0.1 mg/dL
Ca [7]: 10.8 mg/dL
Cl [7]: 110.2 meq/L
DBIL [7]: 0 mg/dL
GLC [7]: 170.4 mg/dL
IP [7]: 6.8 mg/dL
K [7]: 4.3 meq/L
LDH [7]: 135.6 IU/L
Na [7]: 144.4 meq/L
PL [7]: 143 mg/dL
RALB [7]: 3.1 g/dL
TBIL [7]: 0.012 mg/dL
TC [7]: 69.2 mg/dL
TG [7]: 93.6 mg/dL
TP [7]: 6 g/dL
gamma-GTP [7]: 2.6 IU/L
A/G [8]: 1
ALP [8]: 1076.6 IU/L
ALT [8]: 39 IU/L
AST [8]: 43 IU/L
BUN [8]: 20.2 mg/dL
CRE [8]: 0.1 mg/dL
Ca [8]: 10.7 mg/dL
Cl [8]: 106.2 meq/L
DBIL [8]: 0 mg/dL
GLC [8]: 178 mg/dL
IP [8]: 7 mg/dL
K [8]: 4.2 meq/L
LDH [8]: 118 IU/L
Na [8]: 144.2 meq/L
PL [8]: 170 mg/dL
RALB [8]: 3.4 g/dL
TBIL [8]: 0.042 mg/dL
TC [8]: 77.6 mg/dL
TG [8]: 143.6 mg/dL
TP [8]: 6.6 g/dL
gamma-GTP [8]: 4 IU/L
